Data: US20030036532A1, “Use of 2-phenylene diamine derivatives for the treatment of infections” (priority 2000, published 2003)

System: Plasmodium falciparum
Test: antimalarial activity in in vitro cultures of Plasmodium falciparum, inhibition of [3H]-hypoxanthine incorporation
Format: cell-based
Conditions: inhibition of tritium incorporation relative to comparison without substance, 48 h + 24 h incubation; for inhibition at 10 µM / inhibition at 100 µM: Plasmodium falciparum; for inhibition at 10 µM / % Inhibition at 10 μM: 10 μM compound; for inhibition at 100 µM / % Inhibition at 100 μM: 100 μM compound; for % Inhibition at 1 μM: 1 μM compound
Method: To determine the anti-malaria activity, for example, the inhibition of the growth of malaria parasites in blood cultures is determined. […] The plates are incubated at 37° C., 3% CO2 and 5% O2 over a period of 48 hours. 30 μl of medium supplemented with 27 μCi ml^−1 [^3H]-hypoxanthine were then added to each well. After 24 hours' incubation, the parasites were harvested by filtration through glass fiber filters and the incorporated radioactivity was measured. Inhibition of parasite growth was measured as the percentage inhibition of tritium incorporation relative to a comparison without substance. The table states the percentage inhibition in dependence of the concentrations.

| Compound | inhibition at 10 µM [%] | inhibition at 100 µM [%] | % Inhibition at 10 μM [%] | % Inhibition at 100 μM [%] | % Inhibition at 1 μM [%] |
| --- | --- | --- | --- | --- | --- |
| CCCCCCCCCCCCCCCCCCCC(=O)Nc1ccc(NC(=O)Cc2ccc(C)cc2)c(C(=O)c2ccccc2)c1 [compound 10, N-[3-benzoyl-4-[[2-(4-methylphenyl)acetyl]amino]phenyl]eicosanoic Acid Amide] | 0 | 99 | – | – | – |
| CCCCCCCCCCCCCCCC(=O)NCCC(=O)Nc1ccc(NC(=O)Cc2ccccc2)c(C(=O)c2ccccc2)c1 [compound 11, N-[3-[3-benzoyl-4-[(2-phenylacetyl)amino]phenylamino]-3-oxopropyl]-hexadecanoic Acid Amide] | 0 | 98 | – | – | – |
| Cc1ccc(CC(=O)Nc2ccc(NC(=O)CNC(=O)C=Cc3ccc(-c4ccccc4)cc3)cc2C(=O)c2ccccc2)cc1 [compound 12, N-[2-[3-benzoyl-4-[[2-(4-methylphenyl)acetyl]amino]phenylamino]-2-oxo-ethyl]-4-phenylcinnamic Acid Amide] | 67 | 89 | – | – | – |
| O=C(C=Cc1ccc(OCc2ccccc2)cc1)NCCC(=O)Nc1ccc(NC(=O)Cc2ccccc2)c(C(=O)c2ccccc2)c1 [compound 13, N-[3-[3-benzoyl-4-[(2-phenylacetyl)amino]phenylamino]-3-oxopropyl]-4-benzyl-oxycinnamic Acid Amide] | 97 | 95 | – | – | – |
| Cc1ccc(CC(=O)Nc2ccc(NC(=O)c3cccnc3)cc2C(=O)c2ccccc2)cc1 [compound 14, N-[3-benzoyl-4-[2-(4-methylphenyl)acetyl]amino]phenylnicotinic Acid Amide] | – | – | 0 | 34 | – |
| Cc1ccc(CC(=O)Nc2ccc(NC(=O)c3ccccc3)cc2C(=O)c2ccccc2)cc1 [compound 15] | – | – | 77 | 96 | 0 |
| Cc1ccc(CC(=O)Nc2ccc(NC(=O)Cc3ccccc3)cc2C(=O)c2ccccc2)cc1 [compound 16] | – | – | 0 | 94 | 0 |
| Cc1ccc(CC(=O)Nc2ccc(NC(=O)CCc3ccccc3)cc2C(=O)c2ccccc2)cc1 [compound 17] | – | – | 91 | 94 | 0 |
| Cc1ccc(CC(=O)Nc2ccc(NC(=O)CCC3CCCCC3)cc2C(=O)c2ccccc2)cc1 [compound 18] | – | – | 98 | 98 | 9 |
| Cc1ccc(CC(=O)Nc2ccc(NC(=O)CCCc3ccccc3)cc2C(=O)c2ccccc2)cc1 [compound 19] | – | – | 95 | 97 | 0 |
| Cc1ccc(CC(=O)Nc2ccc(NC(=O)CCCCc3ccccc3)cc2C(=O)c2ccccc2)cc1 [compound 20] | – | – | 94 | 97 | 0 |
| Cc1ccc(CC(=O)Nc2ccc(NC(=O)C=Cc3ccccc3)cc2C(=O)c2ccccc2)cc1 [compound 21] | – | – | 95 | 94 | 0 |
| Cc1ccc(CC(=O)Nc2ccc(NC(=O)C=Cc3ccc([N+](=O)[O-])cc3)cc2C(=O)c2ccccc2)cc1 [compound 22] | – | – | 82 | 88 | 0 |
| Cc1ccc(CC(=O)Nc2ccc(NC(=O)C=Cc3ccc(-c4ccccc4)cc3)cc2C(=O)c2ccccc2)cc1 [compound 23, N-[3-[3-benzoyl-4-[2-(4-methylphenyl)acetyl]amino]phenylamino]-4-phenyl-cinnamic Acid Amide] | – | – | 94 | 94 | 82 |
| Cc1ccc(CC(=O)Nc2ccc(NC(=O)C=Cc3ccc(OCc4ccccc4)cc3)cc2C(=O)c2ccccc2)cc1 [compound 24] | – | – | 96 | 97 | 85 |
| Cc1ccc(CC(=O)Nc2ccc(NC(=O)c3cccc4ccccc34)cc2C(=O)c2ccccc2)cc1 [compound 26] | – | – | 65 | 93 | 0 |

| Compound | inhibition at 10 µM [%] | inhibition at 100 µM [%] | % Inhibition at 10 μM [%] | % Inhibition at 100 μM [%] | % Inhibition at 1 μM [%] |
| --- | --- | --- | --- | --- | --- |
| Cc1ccc(CC(=O)Nc2ccc(NC(=O)C3c4ccccc4-c4ccccc43)cc2C(=O)c2ccccc2)cc1 [compound 28] | – | – | 0 | 98 | 0 |
| Cc1ccc(CC(=O)Nc2ccc(-c3ccccc3CNC(=O)CS)cc2C(=O)c2ccccc2)cc1 [compound 29] | – | – | 91 | 97 | 0 |
| Cc1ccc(CC(=O)Nc2ccc(NC(=O)COCc3ccccc3)cc2C(=O)c2ccccc2)cc1 [compound 30] | – | – | 93 | 97 | 0 |
| Cc1ccc(CC(=O)Nc2ccc(NC(=O)CSCc3ccc([N+](=O)[O-])cc3)cc2C(=O)c2ccccc2)cc1 [compound 32] | – | – | 0 | 96 | 0 |
| COC(=O)CC(=O)Nc1ccc(NC(=O)C(C)c2ccccc2)c(C(=O)c2ccccc2)c1 (stereo not shown) [example 1, 2-[N-[3-[3-benzoyl-4-(2-phenylpropionyl)amino]phenylamino]carbamoyl]acetic Acid Methylester] | – | – | 19 | 89 | – |
| COC(=O)CC(=O)Nc1ccc(NC(=O)Cc2ccc(C)cc2)c(C(=O)c2ccccc2)c1 [example 2] | – | – | 19 | 95 | – |
| Cc1ccc(CC(=O)Nc2ccc(NC(=O)CCC(=O)O)cc2C(=O)c2ccccc2)cc1 [example 3] | – | – | 0 | 38 | – |
| COC(=O)CCC(=O)Nc1ccc(NC(=O)Cc2ccc(C)cc2)c(C(=O)c2ccccc2)c1 [example 4] | – | – | 0 | 29 | – |
| Cc1ccc(CC(=O)Nc2ccc(NC(=O)CCCC(=O)O)cc2C(=O)c2ccccc2)cc1 [example 5] | – | – | 0 | 59 | – |
| COC(=O)CCCC(=O)Nc1ccc(NC(=O)Cc2ccc(C)cc2)c(C(=O)c2ccccc2)c1 [example 6] | – | – | 0 | 98 | – |
| CCCCCCCCCCCCCCCCC(=O)NCC(=O)Nc1ccc(NC(=O)Cc2ccc(C)cc2)c(C(=O)c2ccccc2)c1 [example 7, N-[2-[3-benzoyl-4-[[2-(4-methylphenyl)acetyl]amino]phenylamino]-2-oxoethyl]-heptadecanoic Acid Amide] | 0 | 83 | – | – | – |
| CCCCCCCCCCCCCCC(=O)NCCCC(=O)Nc1ccc(NC(=O)Cc2ccc(C)cc2)c(C(=O)c2ccccc2)c1 [example 8, N-[4-[3-benzoyl-4-[[2-(4-methylphenyl)acetyl]amino]phenylamino]-4-oxobutyl]-pentadecanoic Acid Amide] | 0 | 93 | – | – | – |
| CCCCCCCCCCCCCCNC(=O)CCCC(=O)Nc1ccc(NC(=O)Cc2ccc(C)cc2)c(C(=O)c2ccccc2)c1 [example 9] | – | – | 0 | 96 | – |
| N-[2-[3-benzoyl-4-[[2-(4-methylphenyl)acetyl]amino]phenylamino]-2-oxo-ethyl]-4-benzoic Acid Amide [compound 25] | – | – | 0 | 86 | 0 |
| N-[3-benzoyl-4-[2-(4-methylphenyl)acetyl]amino]phenyl]-4-(4-nitrophenyl)butyric Acid Amide [compound 31] | – | – | 93 | 96 | 0 |
